This passage reports relative viability results from the supplement of paper PMC10307832.

What all share (assay): relative viability (nuclei count vs DMSO), 5 days (fraction); higher = more cells survive
Compound in the experiment “OSI-027 + Palbociclib”: COc1cccc2cc(-c3nc([C@H]4CC[C@H](C(=O)O)CC4)n4ncnc(N)c34)[nH]c12 [OSI-027] + CC(=O)c1c(C)c2cnc(Nc3ccc(N4CCNCC4)cn3)nc2n(C2CCCC2)c1=O [Palbociclib] (partner 0.5 µM)
The method in brief:
(§1)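 Five library-drug doses in √10 steps were combined with a fixed anchor-drug dose, or a single drug was given alone, by pin tool to lung cancer cell lines in 1536-well plates the day after seeding. Nuclei were stained and counted after 5 days. Relative viability is the nuclei count in treated wells over that in vehicle wells, taken as the median of duplicate plates.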

Compound in the experiment “Vemurafenib + Phenformin”: CCCS(=O)(=O)Nc1ccc(F)c(C(=O)c2c[nH]c3ncc(-c4ccc(Cl)cc4)cc23)c1F [Vemurafenib] + N=C(N)NC(=N)NCCc1ccccc1 [Phenformin] (partner 250 µM)
The method in brief: as §1

Compound in the experiment “OSI-027 + Pictilisib”: COc1cccc2cc(-c3nc([C@H]4CC[C@H](C(=O)O)CC4)n4ncnc(N)c34)[nH]c12 [OSI-027] + CS(=O)(=O)N1CCN(Cc2cc3nc(-c4cccc5[nH]ncc45)nc(N4CCOCC4)c3s2)CC1 [Pictilisib] (partner 1 µM)
The method in brief: as §1

Compound in the experiment “Alpelisib + Pemetrexed”: Cc1nc(NC(=O)N2CCC[C@H]2C(N)=O)sc1-c1ccnc(C(C)(C)C(F)(F)F)c1 [Alpelisib] + Nc1nc2[nH]cc(CCc3ccc(C(=O)N[C@@H](CCC(=O)O)C(=O)O)cc3)c2c(=O)[nH]1 [Pemetrexed] (partner 0.2 µM)
The method in brief: as §1

For NCI-H2087, the relative viability with OSI-027 + Palbociclib (first compound 0.01 µM) turned out to be 0.261; with OSI-027 + Palbociclib (first compound 0.03162 µM), 0.169; in the experiment with OSI-027 + Palbociclib (first compound 0.1 µM), 0.207; with OSI-027 + Palbociclib (first compound 0.3162 µM), 0.195; with OSI-027 + Palbociclib (first compound 1 µM), 0.142; with Vemurafenib + Phenformin (first compound 0.03162 µM), 0.438. Further, the relative viability with Vemurafenib + Phenformin (first compound 0.1 µM) came to 0.402; with Vemurafenib + Phenformin (first compound 1 µM), 0.467; with OSI-027 + Pictilisib (first compound 0.01 µM) it was 0.794; with OSI-027 + Pictilisib (first compound 0.03162 µM) it was 0.787; with OSI-027 + Pictilisib (first compound 0.1 µM) it was 0.686; with OSI-027 + Pictilisib (first compound 0.3162 µM), 0.523. Moreover, the relative viability with OSI-027 + Pictilisib (first compound 1 µM) came out at 0.329; with Alpelisib + Pemetrexed (first compound 0.04 µM) it was 0.634; in the experiment with Alpelisib + Pemetrexed (first compound 0.1265 µM), 0.625; with Alpelisib + Pemetrexed (first compound 0.4 µM), 0.679; with Alpelisib + Pemetrexed (first compound 1.265 µM), 0.65; with Alpelisib + Pemetrexed (first compound 4 µM), 0.606.

With NCI-H520, the relative viability with OSI-027 + Palbociclib (first compound 0.01 µM) stood at 0.204; with OSI-027 + Palbociclib (first compound 0.03162 µM) it was 0.18; in the experiment with OSI-027 + Palbociclib (first compound 0.1 µM), 0.22; with OSI-027 + Palbociclib (first compound 0.3162 µM) it was 0.163; with OSI-027 + Palbociclib (first compound 1 µM), 0.145; with Vemurafenib + Phenformin (first compound 0.03162 µM), 0.564. Further, the relative viability with Vemurafenib + Phenformin (first compound 0.1 µM) was found to be 0.702; in the experiment with Vemurafenib + Phenformin (first compound 0.3162 µM), 0.435; with Vemurafenib + Phenformin (first compound 1 µM), 0.496; with OSI-027 + Pictilisib (first compound 0.01 µM), 0.31; with OSI-027 + Pictilisib (first compound 0.03162 µM), 0.268; with OSI-027 + Pictilisib (first compound 0.1 µM), 0.219. Also, the relative viability with OSI-027 + Pictilisib (first compound 0.3162 µM) is 0.17; with OSI-027 + Pictilisib (first compound 1 µM) it was 0.145; with Alpelisib + Pemetrexed (first compound 0.04 µM) it was 0.609; with Alpelisib + Pemetrexed (first compound 0.1265 µM), 0.716; with Alpelisib + Pemetrexed (first compound 0.4 µM) it was 0.707; with Alpelisib + Pemetrexed (first compound 1.265 µM) it was 0.557. Moreover, the relative viability with Alpelisib + Pemetrexed (first compound 4 µM) came to 0.413.

For HCC-78, the relative viability with OSI-027 + Palbociclib (first compound 0.01 µM) is 0.484; with OSI-027 + Palbociclib (first compound 0.03162 µM), 0.452; in the experiment with OSI-027 + Palbociclib (first compound 0.1 µM), 0.483; with OSI-027 + Palbociclib (first compound 0.3162 µM), 0.45; with OSI-027 + Palbociclib (first compound 1 µM) it was 0.411; with Vemurafenib + Phenformin (first compound 0.03162 µM), 0.656. The relative viability in the experiment with Vemurafenib + Phenformin (first compound 0.1 µM) was found to be 0.618; with Vemurafenib + Phenformin (first compound 0.3162 µM) it was 0.817; with Vemurafenib + Phenformin (first compound 1 µM), 0.727; in the experiment with OSI-027 + Pictilisib (first compound 0.01 µM), 0.202; with OSI-027 + Pictilisib (first compound 0.03162 µM), 0.225; in the experiment with OSI-027 + Pictilisib (first compound 0.1 µM), 0.184. For the same cell line, the relative viability in the experiment with OSI-027 + Pictilisib (first compound 0.3162 µM) came to 0.19; with OSI-027 + Pictilisib (first compound 1 µM), 0.207; with Alpelisib + Pemetrexed (first compound 0.04 µM) it was 0.854; in the experiment with Alpelisib + Pemetrexed (first compound 0.1265 µM), 0.941; with Alpelisib + Pemetrexed (first compound 0.4 µM), 0.951; with Alpelisib + Pemetrexed (first compound 1.265 µM) it was 0.854. Besides, the relative viability with Alpelisib + Pemetrexed (first compound 4 µM) was determined as 0.887.

COR-L 105: the relative viability in the experiment with OSI-027 + Palbociclib (first compound 0.01 µM) is 0.393; with OSI-027 + Palbociclib (first compound 0.03162 µM), 0.406; with OSI-027 + Palbociclib (first compound 0.1 µM) it was 0.369; with OSI-027 + Palbociclib (first compound 0.3162 µM), 0.389; with OSI-027 + Palbociclib (first compound 1 µM), 0.423; in the experiment with Vemurafenib + Phenformin (first compound 0.03162 µM) it was 0.399. Besides, the relative viability with Vemurafenib + Phenformin (first compound 1 µM) stood at 0.5; with OSI-027 + Pictilisib (first compound 0.01 µM), 0.389; with OSI-027 + Pictilisib (first compound 0.03162 µM) it was 0.453; with OSI-027 + Pictilisib (first compound 0.1 µM), 0.358; with OSI-027 + Pictilisib (first compound 0.3162 µM), 0.377; with OSI-027 + Pictilisib (first compound 1 µM), 0.254. The relative viability with Alpelisib + Pemetrexed (first compound 0.04 µM) was determined as 1.12; with Alpelisib + Pemetrexed (first compound 0.1265 µM) it was 1.18; in the experiment with Alpelisib + Pemetrexed (first compound 0.4 µM), 1.39; in the experiment with Alpelisib + Pemetrexed (first compound 1.265 µM), 0.935; with Alpelisib + Pemetrexed (first compound 4 µM), 1.13.

Turning to NCI-H1437, the relative viability with OSI-027 + Palbociclib (first compound 0.01 µM) came out at 0.286; with OSI-027 + Palbociclib (first compound 0.03162 µM), 0.324; with OSI-027 + Palbociclib (first compound 0.1 µM), 0.309; in the experiment with OSI-027 + Palbociclib (first compound 0.3162 µM) it was 0.357; in the experiment with OSI-027 + Palbociclib (first compound 1 µM) it was 0.22; with Vemurafenib + Phenformin (first compound 0.03162 µM), 0.258. Also, the relative viability in the experiment with Vemurafenib + Phenformin (first compound 0.1 µM) came to 0.315; with Vemurafenib + Phenformin (first compound 0.3162 µM) it was 0.29; with Vemurafenib + Phenformin (first compound 1 µM), 0.309; with OSI-027 + Pictilisib (first compound 0.01 µM), 0.359; with OSI-027 + Pictilisib (first compound 0.03162 µM) it was 0.4; in the experiment with OSI-027 + Pictilisib (first compound 0.1 µM), 0.282. Moreover, the relative viability in the experiment with OSI-027 + Pictilisib (first compound 0.3162 µM) amounted to 0.222; in the experiment with OSI-027 + Pictilisib (first compound 1 µM) it was 0.214; in the experiment with Alpelisib + Pemetrexed (first compound 0.04 µM), 0.3; with Alpelisib + Pemetrexed (first compound 0.1265 µM), 0.31; with Alpelisib + Pemetrexed (first compound 0.4 µM) it was 0.274; in the experiment with Alpelisib + Pemetrexed (first compound 1.265 µM), 0.252. Moreover, in the experiment with Alpelisib + Pemetrexed (first compound 4 µM), the relative viability amounted to 0.213.
